Test systems include Malme-3M; OVCAR-3; TK-10; EKVX; SNB-19; BT-549.
What all share (experiment): NCI tumour cell line growth inhibition, 48 h

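Each compound was tested at five concentrations against cells in 96-well plates for 48 hours. The concentration for 50% growth inhibition is given as GI50.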 The source made the active and inactive calls. Cut-off read from the data, not from the text of the source: active = GI50 up to about 1.1 µM and inactive = higher.

On to `C=C1C(=O)O[C@@H]2C=C(C)C3=CC(=O)[C@](C)(C[C@H](OC(=O)/C(C)=C\C)[C@@H]12)O3`, for which the GI50 was 1.34 µM (inactive) in the experiment on Malme-3M; 0.491 µM (active) in the experiment on OVCAR-3; 0.826 µM (active) with TK-10; 2.77 µM (inactive) in the experiment on EKVX; 8.47 µM (inactive) in the experiment with SNB-19; 0.493 µM (active) in the experiment with BT-549.

Source of the values: ChEMBL document CHEMBL1201862, “PubChem BioAssay data set” (2004).
